Laboratory results from US20240059703A1 (AMGEN INC., priority 2021, published 2024).

Target: KRAS G12C (Homo sapiens (Human), UniProt P01116, C118A/G12C)
Assay: 2 h coupled exchange assay
Format: biochemical
Settings: Avg 2 h Coupled exchange IC50, 2 h compound pre-incubation, SOS-mediated nucleotide exchange
Procedure: The term “2 h coupled exchange assay” or “20 h coupled exchange assay” as used herein refers to the assay described in the Section entitled “BIOLOGICAL EVALUATION.”

Sequence of KRAS G12C (P01116 other isoform, or with tags, fused parts or gaps G12C/C118A): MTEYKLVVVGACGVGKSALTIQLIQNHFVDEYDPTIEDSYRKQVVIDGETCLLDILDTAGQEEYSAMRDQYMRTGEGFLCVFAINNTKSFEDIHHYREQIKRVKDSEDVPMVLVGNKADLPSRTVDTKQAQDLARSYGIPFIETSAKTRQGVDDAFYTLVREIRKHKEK

IC50	Compound
9010 nM	C=CC(=O)N1CC2(CCN(c3nc(-c4c(C)ccc5[nH]ncc45)c4ccc(C)cc4n3)C2)C1 [Example 1-40, 1-(6-(7-methyl-4-(5-methyl-1H-indazol-4-yl)-2-quinazolinyl)-2,6-diazaspiro[3.4]octan-2-yl)-2-propen-1-one]
791 nM	C=C(Br)C(=O)N1CC2(CCN(c3nc4c(F)cccc4c(-c4c(C)ccc5[nH]ncc45)c3C#N)C2)C1 [Example 1-51, 2-(2-(2-bromo-2-propenoyl)-2,6-diazaspiro[3.4]octan-6-yl)-8-fluoro-4-(5-methyl-1H-indazol-4-yl)-3-quinolinecarbonitrile]
2020 nM	C=CC(=O)N1CC2(CCN(c3nc4c(c(-c5ccccc5F)c3C#N)CCCC4)C2)C1 [Example 2-7, 4-(2-fluorophenyl)-2-(2-(2-propenoyl)-2,6-diazaspiro[3.4]octan-6-yl)-5,6,7,8-tetrahydro-3-quinolinecarbonitrile]
846 nM	C=CC(=O)N1CC2(CCN(c3nc4c(c(-c5cc(O)cc(C(F)(F)F)c5F)c3C)CCC(C)(C)C4)C2)C1 [Example 2-22, 1-(6-(4-(2-fluoro-5-hydroxy-3-(trifluoromethyl)phenyl)-3,7,7-trimethyl-5,6,7,8-tetrahydro-2-quinolinyl)-2,6-diazaspiro[3.4]octan-2-yl)-2-propen-1-one]
735 nM	C=CC(=O)N1CC2(CCN(c3nc4c(c(-c5c(C)ccc6cn[nH]c56)c3C)CCC(C)(C)C4)C2)C1 [Example 2-23, 1-(6-(3,7,7-trimethyl-4-(6-methyl-1H-indazol-7-yl)-5,6,7,8-tetrahydro-2-quinolinyl)-2,6-diazaspiro[3.4]octan-2-yl)-2-propen-1-one]
234 nM	C=CC(=O)N1CC2(CCN(c3nc4c(c(-c5cc(O)cc(F)c5F)c3C)CCC(C)(C)C4)C2)C1 [Example 2-26, 1-(6-(4-(2,3-difluoro-5-hydroxyphenyl)-3,7,7-trimethyl-5,6,7,8-tetrahydro-2-quinolinyl)-2,6-diazaspiro[3.4]octan-2-yl)-2-propen-1-one]
903 nM	C=CC(=O)N1CC2(CCN(c3nc4ccccc4c(-c4c(Cl)ccc5[nH]ncc45)c3C)C2)C1 [Example 2-29, 1-(6-(4-(5-chloro-1H-indazol-4-yl)-3-methyl-2-quinolinyl)-2,6-diazaspiro[3.4]octan-2-yl)-2-propen-1-one]
750 nM	C=CC(=O)N1CC2(CCN(c3nc4c(c(-c5cccc6ccn(C)c56)c3C#N)COC(C)(C)C4)C2)C1 [Example 2-30, 7,7-dimethyl-4-(1-methyl-1H-indol-7-yl)-2-(2-(2-propenoyl)-2,6-diazaspiro[3.4]octan-6-yl)-7,8-dihydro-5H-pyrano[4,3-b]pyridine-3-carbonitrile]
808 nM	C=CC(=O)N1CC2(CCN(c3nc4c(c(-c5cc(Cl)cc6cnn(C)c56)c3C)COC(C)(C)C4)C2)C1 [Example 2-32, 1-(6-(4-(5-chloro-1-methyl-1H-indazol-7-yl)-3,7,7-trimethyl-7,8-dihydro-5H-pyrano[4,3-b]pyridin-2-yl)-2,6-diazaspiro[3.4]octan-2-yl)-2-propen-1-one]
186 nM	C=CC(=O)N1CC2(CCN(c3nc4c(c(-c5cc(O)ccc5Cl)c3C)COC(C)(C)C4)C2)C1 [Example 2-35, 1-(6-(4-(2-chloro-5-hydroxyphenyl)-3,7,7-trimethyl-7,8-dihydro-5H-pyrano[4,3-b]pyridin-2-yl)-2,6-diazaspiro[3.4]octan-2-yl)-2-propen-1-one]
298 nM	C=CC(=O)N1CC2(CCN(c3nc4c(c(-c5cc(O)ccc5C)c3C#N)C3CCC4C3)C2)C1 [Example 2-37, (1R,8S)-6-(5-hydroxy-2-methylphenyl)-4-(2-(2-propenoyl)-2,6-diazaspiro[3.4]octan-6-yl)-3-azatricyclo[6.2.1.0^2,7]undeca-2,4,6-triene-5-carbonitrile|(1S, 8R)-6-(5-hydroxy-2-methylphenyl)-4-(2-(2-propenoyl)-2,6-diazaspiro[3,4]octan-6-yl)-3-azatricyclo[6.2.1.0^2.7]undeca-2,4,6-triene-5-carbonitrile]
113 nM	C=CC(=O)N1CC2(CCN(c3nc4c(c(-c5cc(O)cc6ccncc56)c3C#N)C[C@H]3C[C@@H]4C3(C)C)C2)C1 [Example 2-41, (1R,9R)-6-(6-hydroxy-8-isoquinolinyl)-10,10-dimethyl-4-(2-(2-propenoyl)-2,6-diazaspiro[3.4]octan-6-yl)-3-azatricyclo[7.1.1.0^2,7]undeca-2,4,6-triene-5-carbonitrile]
193 nM	C=CC(=O)N1CC2(CCN(c3nc4c(c(-c5cc(O)cc6cccnc56)c3C#N)C[C@H]3C[C@@H]4C3(C)C)C2)C1 [Example 2-43, (1R,9R)-6-(6-hydroxy-8-quinolinyl)-10,10-dimethyl-4-(2-(2-propenoyl)-2,6-diazaspiro[3,4]octan-6-yl)-3-azatricyclo[7.1.1.0^2,7]undeca-2,4,6-triene-5-carbonitrile]
267 nM	C=CC(=O)N1CC2(CCN(c3nc4cc(OC)cnc4c(-c4c(C)ccc5[nH]ncc45)c3C)C2)C1 [Example 2-51, 1-(6-(7-methoxy-3-methyl-4-(5-methyl-1H-indazol-4-yl)-1,5-naphthyridin-2-yl)-2,6-diazaspiro[3.4]octan-2-yl)-2-propen-1-one]
793 nM	C=CC(=O)N1CC2(CCN(c3nc4c(c(-c5ccccc5Cl)c3C#N)C[C@H]3C[C@@H]4C3(C)C)C2)C1 [Example 2-63, (1R,9R)-6-(2-chlorophenyl)-10,10-dimethyl-4-(2-(2-propenoyl)-2,6-diazaspiro[3.4]octan-6-yl)-3-azatricyclo[7.1.1.0^2,7]undeca-2,4,6-triene-5-carbonitrile]
735 nM	C=CC(=O)N1CC2(CCN(c3nc4c(c(-c5cc(CO)ccc5Cl)c3C#N)C[C@H]3C[C@@H]4C3(C)C)C2)C1 [Example 2-65, (1R,9R)-6-(2-chloro-5-(hydroxymethyl)phenyl)-10,10-dimethyl-4-(2-(2-propenoyl)-2,6-diazaspiro[3.4]octan-6-yl)-3-azatricyclo[7.1.1.0^2,7]undeca-2,4,6-triene-5-carbonitrile]
1340 nM	C=CC(=O)N1CC2(CCN(c3nc4c(c(-c5cccc(F)c5O)c3C#N)C[C@H]3C[C@@H]4C3(C)C)C2)C1 [Example 2-70, (1R,9R)-6-(3-fluoro-2-hydroxyphenyl)-10,10-dimethyl-4-(2-(2-propenoyl)-2,6-diazaspiro[3.4]octan-6-yl)-3-azatricyclo[7.1.1.0^2,7]undeca-2,4,6-triene-5-carbonitrile]
641 nM	C=CC(=O)N1CC2(CCN(c3nc4c(c(-c5cccc6c(O)cccc56)c3C)COC(C)(C)C4)C2)C1 [Example 2-82, 1-(6-(4-(5-hydroxy-1-naphthalenyl)-3,7,7-trimethyl-7,8-dihydro-5H-pyrano[4,3-b]pyridin-2-yl)-2,6-diazaspiro[3,4]octan-2-yl)-2-propen-1-one]
6150 nM	C=CC(=O)N1CC2(CCN(c3nc4c(c(-c5c(C)ccc6cnn(C)c56)c3Cl)COC(C)(C)C4)C2)C1 [Example 2-86, 1-(6-(3-chloro-4-(1,6-dimethyl-1H-indazol-7-yl)-7,7-dimethyl-7,8-dihydro-5H-pyrano[4,3-b]pyridin-2-yl)-2,6-diazaspiro[3.4]octan-2-yl)-2-propen-1-one]
